Among the data in patent US8802678B2, “Carbonylated (aza) cyclohexanes as dopamine D3 receptor ligands” (Bioprojet, priority 2006, dated 2014) are melting point values, retold here.

As a reminder, the melting point is the temperature of the solid-liquid transition. `CN(C)c1cccc(N2CCN(CC[C@H]3CC[C@H](NC(=O)CC#N)CC3)CC2)c1` [Example 150, 2-Cyano-N-(4-{2-[4-(3-dimethylaminophenyl)piperazin-1-yl]ethyl}cyclohexyl)acetamide] yielded a melting point of 177 °C. To `COc1ccc(N2CCN(CC[C@H]3CC[C@H](NC(=O)C4=CCCC4)CC3)CC2)cc1` [Example 571, Cyclopent-1-enecarboxylic acid (4-{2-[4-(4-methoxyphenyl)-piperazin-1-yl]ethyl}cyclohexyl) amide] belongs 205 °C; to `N#CCCCC(=O)N[C@H]1CC[C@H](CCN2CCN(c3cccc(OC(F)(F)F)c3)CC2)CC1` [Example 206, 4-Cyano-N-(4-{2-[4-(3-trifluoromethoxyphenyl)piperazin-1-yl]ethyl}cyclohexyl)butanamide], 133 to 134 °C; to `CC(=O)CN1CCC(CCN2CCN(c3ccccc3C(F)(F)F)CC2)CC1.Cl.Cl`, 290 °C.

The molecule `Cc1ccc(F)c(N2CCN(CC[C@H]3CC[C@H](NC(=O)CC#N)CC3)CC2)c1` [Example 192, 2-Cyano-N-(4-{2-[4-(2-fluoro-5-methylphenyl)piperazin-1-yl]ethyl}cyclohexyl)acetamide] registered a melting point of 178 °C. To `Cl.N#CCC(=O)N[C@H]1CC[C@H](CCN2CCN(c3ccccc3)CC2)CC1` belongs 243 °C; to `N#CCCCC(=O)N[C@H]1CC[C@H](CCN2CCN(c3ccc(Cl)cc3Cl)CC2)CC1` [Example 762, 4-Cyano-N-(4-{2-[4-(2,4-dichlorophenyl)piperazin-1-yl]ethyl}cyclohexyl)butanamide], 162 °C; to `O=C(N[C@H]1CC[C@H](CCN2CCN(c3ccccc3F)CC2)CC1)C1CCCO1` (stereo partly drawn) [Example 57, Tetrahydrofuran-2-carboxylic acid (4-{2-[4-(2-fluorophenyl)piperazin-1-yl]ethyl}cyclohexyl)amide], 119 to 120 °C. The result for `COc1ccc(C(F)(F)F)cc1N1CCN(CCC2CCN(CC(C)=O)CC2)CC1.Cl.Cl` reads 260 °C; that for `COCCCC(=O)N[C@H]1CC[C@H](CCN2CCN(c3ccc(F)cc3F)CC2)CC1` [Example 504, N-(4-{2-[4-(2,4-Difluorophenyl)piperazin-1-yl]ethyl}cyclohexyl)-4-methoxybutanamide], 185 °C; that for `N#CCCCC(=O)N[C@H]1CC[C@H](CCN2CC=C(c3cc(F)cc(C(F)(F)F)c3)CC2)CC1`, 114 °C. The result for `CC(=O)CN1CCC(CCN2CCN(c3ccc4c(c3)OCO4)CC2)CC1` [Example 584, 1-{4-[2-(4-Benzo[1,3]dioxol-5-ylpiperazin-1-yl)ethyl]piperidin-1-yl}propan-2-one] reads 113 °C; that for `CS(=O)(=O)CC(=O)N[C@H]1CC[C@H](CCN2CCN(c3cccc(F)c3F)CC2)CC1` [Example 426, N-(4-{2-[4-(2,3-Difluorophenyl)-piperazin-1-yl]ethyl}cyclohexyl)-2-methanesulfonylacetamide], 214 °C. `COc1ccc(C)cc1N1CCN(CC[C@H]2CC[C@H](NC(=O)CC#N)CC2)CC1` [Example 195, 2-Cyano-N-(4-{2-[4-(2-methoxy-5-methylphenyl)piperazin-1-yl]ethyl}cyclohexyl)acetamide] showed a melting point of 178 °C.

`Cc1ccc(Cl)cc1N1CCN(CC[C@H]2CC[C@H](NC(=O)CCCC#N)CC2)CC1` [Example 248, N-(4-{2-[4-(5-Chloro-2-methylphenyl)piperazin-1-yl]ethyl}cyclohexyl)-4-cyanobutanamide]: the melting point was 152 to 153 °C.

`N#CCCCCC(=O)N[C@H]1CC[C@H](CCN2CCN(c3cc(C(F)(F)F)ccc3F)CC2)CC1` [Example 731] registered a melting point of 158 °C.

In turn, `COc1ccc(C)c(N2CCN(CC[C@H]3CC[C@H](NC(=O)CCCC#N)CC3)CC2)c1` [Example 391, 4-Cyano-N-(4-{2-[4-(5-methoxy-2-methylphenyl)piperazin-1-yl]ethyl}cyclohexyl)butanamide] had a melting point of 170 °C.

In the case of `Cc1ccc(N2CCN(CC[C@H]3CC[C@H](NC(=O)CCCC#N)CC3)CC2)cc1C` [Example 505, 4-Cyano-N-(4-{2-[4-(3,4-dimethylphenyl)piperazin-1-yl]ethyl}cyclohexyl)butanamide], the melting point turned out to be 172 °C.

Regarding `CC(=O)CN1CCC(CCN2CCN(c3ccc4c(c3)CCCC4)CC2)CC1` [Example 576], the melting point was 75 °C. With `Cc1cc(C)cc(N2CCN(CC[C@H]3CC[C@@H](NC(=O)CC#N)CC3)CC2)c1` [Example 336, 2-Cyano-N-(4-{2-[4-(3,5-dimethylphenyl)piperazin-1-yl]ethyl}cyclohexyl)acetamide], the melting point is 119 °C. To `CC(=O)CN1CCC(CCN2CCN(c3ccc4c(c3)OCCO4)CC2)CC1` [Example 711, 1-(4-{2-[4-(2,3-Dihydrobenzo[1,4]dioxin-6-yl)piperazin-1-yl]ethyl}piperidin-1-yl)propan-2-one] belongs 126 °C; to `O=C(N[C@H]1CC[C@H](CCN2CCN(c3cc(F)ccc3F)CC2)CC1)C1=CCCC1` [Example 441, Cyclopent-1-enecarboxylic acid (4-{2-[4-(2,5-difluorophenyl)-piperazin-1-yl]ethyl}cyclohexyl) amide], 209 °C. For `O=C(N[C@H]1CC[C@H](CCN2CCN(c3cccc(C(F)(F)F)c3F)CC2)CC1)C(F)F` [Example 443, 2,2-Difluoro-N-(4-{2-[4-(2-fluoro-3-trifluoromethylphenyl)piperazin-1-yl]ethyl}cyclohexyl)acetamide], the melting point was determined as 156 °C.

Regarding `CCOC(=O)Nc1cccc(N2CCN(CCC3CCN(CC(C)=O)CC3)CC2)c1` [Example 777, [3-(4-{2-[1-(2-oxopropyl)piperidin-4-yl]ethyl}piperazin-1-yl)phenyl]carbamic acid ethyl ester], the melting point was found to be 118 °C. The result for `CC(=O)NCC(=O)N[C@H]1CC[C@H](CCN2CCN(c3ccccc3F)CC2)CC1` [Example 134, 2-Acetylamino-N-(4-{2-[4-(2-fluorophenyl)piperazin-1-yl]ethyl}cyclohexyl)acetamide] reads 217 °C. To `CCOC(=O)CN1CCC(CCN2CCN(c3cccc(C)c3C)CC2)CC1` [Example 533, (4-{2-[4-(2,3-Dimethylphenyl)piperazin-1-yl]ethyl}piperidin-1-yl)acetic acid ethyl ester] belongs 82 °C; to `N#CCC(=O)N[C@H]1CC[C@H](CCN2CC=C(c3ccc(F)cc3)CC2)CC1`, 202 °C; to `O=C(CC(F)(F)F)N[C@H]1CC[C@H](CCN2CCN(c3cccc(C(F)(F)F)c3F)CC2)CC1` [Example 256, 3,3,3-Trifluoro-N-(4-{2-[4-(2-fluoro-3-trifluoromethylphenyl)-piperazin-1-yl]ethyl}cyclohexyl)-propanamide], 198 °C. In turn, `O=C(N[C@H]1CC[C@H](CCN2CCN(c3cccc(C(F)(F)F)c3F)CC2)CC1)[C@@H]1CCCN1` [Example 501, Pyrrolidine-2-carboxylic acid (4-{2-[4-(2-fluoro-3-trifluoro-methylphenyl)piperazin-1-yl]ethyl}cyclohexyl) amide] returned a melting point of 140 °C. To `N#CCC(=O)N[C@H]1CC[C@H](CCN2CC=C(c3cccc(C(F)(F)F)c3F)CC2)CC1` belongs 171 °C. To `N#CCCCC(=O)NC1CCC(CCN2CCN(c3cccc(-c4ccccc4)c3)CC2)CC1` (stereo not drawn) [Example 462, N-{4-[2-(4-Biphenyl-3-ylpiperazin-1-yl)ethyl]cyclohexyl}-4-cyanobutanamide] belongs 119 °C.

Molecule `N#CCCCC(=O)N[C@H]1CC[C@H](CCN2CCN(c3ccccc3Cl)CC2)CC1` [Example 233, N-(4-{2-[4-(2-Chlorophenyl)piperazin-1-yl]ethyl}cyclohexyl)-4-cyanobutanamide] showed a melting point of 142 °C. To `CCOCC(=O)N1CCC(CCN2CCN(c3cccc4c3CCC4)CC2)CC1.Cl` belongs 270 °C; to `CC(=O)CN1CCC(CCN2CCN(c3cccc(C(C)=O)c3)CC2)CC1` [Example 603, 1-(4-{2-[4-(3-Acetylphenyl)-piperazin-1-yl]ethyl}piperidin-1-yl)propan-2-one], 85 °C; to `COc1cccc(N2CCN(CC[C@H]3CC[C@H](NC(=O)CC#N)CC3)CC2)c1.Cl`, 219 °C. The result for `N#CCC(=O)N[C@H]1CC[C@H](CCN2CCN(c3ccc(F)c(C#N)c3F)CC2)CC1` [Example 687, 2-Cyano-N-(4-{2-[4-(3-cyano-2,4-difluorophenyl)piperazin-1-yl]ethyl}cyclohexyl)acetamide] reads 210 °C. The result for `CC(=O)CN1CCC(CCN2CCN(c3ccc(C(F)(F)F)cc3)CC2)CC1` [Example 587, 1-(4-{2-[4-(4-Trifluoromethylphenyl)piperazin-1-yl]ethyl}pipericin-1-yl)propan-2-one] reads 104 °C. In turn, `CC(=O)CN1CCC(CCN2CCN(c3cc(C(F)(F)F)cc(C(F)(F)F)c3)CC2)CC1.Cl.Cl` showed a melting point of 260 °C. The result for `CSc1cccc(N2CCN(CC[C@H]3CC[C@H](NC(=O)CCC#N)CC3)CC2)c1` [Example 269, 3-Cyano-N-(4-{2-[4-(3-methylsulfanylphenyl)piperazin-1-yl]ethyl}cyclohexyl)-propanamide] reads 98 °C; that for `CC(=O)CCC(=O)N[C@H]1CC[C@H](CCN2CCN(c3cccc(C(F)(F)F)c3F)CC2)CC1` [Example 231, 4-Oxopentanoic acid (4-{2-[4-(2-fluoro-3-trifluoromethyl-phenyl)piperazin-1-yl]ethyl}cyclohexyl)amide], 178 °C. To `NC(=O)CCC(=O)N[C@H]1CC[C@@H](CCN2CCN(c3cccc(F)c3)CC2)CC1` [Example 398, N-(4-{2-[4-(3-Fluorophenyl)-piperazin-1-yl]ethyl}cyclohexyl)-succinamide] belongs 169 °C; to `COCCCC(=O)N[C@H]1CC[C@H](CCN2CCN(c3ccc(F)c(F)c3F)CC2)CC1` [Example 652, 4-Methoxy-N-(4-{2-[4-(2,3,4-trifluorophenyl)piperazin-1-yl]ethyl}cyclohexyl)butanamide], 203 °C.
